Results reported in patent US8604073B2, “Antimicrobial composition” (Ethicon, Inc., priority 2006, dated 2013).

Tests used:
[1] = tested on: MRSA-002; assay: Viable plate count, resistant bacteria, protocol of Example 1
Method: (§1) A portion of 0.05 ml of each dilution was added to 0.95 ml of bacterial culture (trypticase soy broth containing 10^6 CFU/ml).
MRSA used are MRSA-002 and MRSA-006.

[2] = tested on: MRSA-006; assay: as above
Method: as §1
MRSA used are MRSA-002 and MRSA-006.

[3] = tested on: MRSE 700563; assay: as above
Method: as §1
MRSA used are MRSA-002 and MRSA-006.

[4] = tested on: MRSE 51625; assay: as above
Method: as §1
MRSA used are MRSA-002 and MRSA-006.

[5] = tested on: MRSA 006; assay: Zone of inhibition of treated Nu-Gel hydrogel squares on inoculated TSA agar
Method: (§2) The zone of inhibition, which is defined as the average distance in millimeter from four edges of the square and four edges of the clear zone around the square, was measured.

[6] = tested on: MRSE 700563; assay: as above
Method: as §2

| Compound | CFU/ml MRSA-002 ([1]; 100 ppm) | CFU/ml MRSA-006 ([2]; 100 ppm) | CFU/ml MRSE 700563 ([3]; 100 ppm) | CFU/ml MRSE 51625 ([4]; 100 ppm) | Zone of inhibition (mm) MRSA 006 ([5]; 60 ug/cm^2, 48 hours at 37° C.) [mm] | Zone of inhibition (mm) MRSE 700563 ([6]; 60 ug/cm^2, 48 hours at 37° C.) [mm] | CFU/ml MRSA-002 ([1]; 5 ppm) | CFU/ml MRSA-006 ([2]; 5 ppm) | CFU/ml MRSE 700563 ([3]; 5 ppm) | CFU/ml MRSE 51625 ([4]; 5 ppm) | Zone of inhibition (mm) MRSA 006 ([5]; 6 ug/cm^2, 48 hours at 37° C.) [mm] | Zone of inhibition (mm) MRSE 700563 ([6]; 6 ug/cm^2, 48 hours at 37° C.) [mm] |
| --- | --- | --- | --- | --- | --- | --- | --- | --- | --- | --- | --- | --- |
| Cc1nnc(SCC2=C(C(=O)O)N3C(=O)[C@@H](NC(=O)Cn4cnnn4)[C@H]3SC2)s1 [Cefazolin (CF), Cefazolin] | 1.1 × 10^9 CFU/ml | 1.4 × 10^5 CFU/ml | 1.5 × 10^8 CFU/ml | 1.5 × 10^6 CFU/ml | 0 | 0 |  |  |  |  |  |  |
| CCCCCCCCCCCC(=O)N[C@@H](CCCN=C(N)N)C(=O)OCC.Cl [LAE, ethyl ester of the lauramide of the arginine monohydrochloride] |  |  |  |  |  |  | 5.0 × 10^6 CFU/ml | 6.2 × 10^8 CFU/ml | 4.0 × 10^8 CFU/ml | 1.2 × 10^9 CFU/ml | 0 | 0 |
| Polymixin B [Polymixin B (PY)] | 1.2 × 10^9 CFU/ml | 1.2 × 10^9 CFU/ml | 1.2 × 10^9 CFU/ml | 6.2 × 10^8 CFU/ml | 0 | 0 |  |  |  |  |  |  |
